Structures can show the parent of a compound that is named as a salt. Where two headings read alike, the source gives them in different places.
Key:
[1] = in vivo; cited from earlier work
rat colon = assay: Inhibition of acetylcholine-induced contraction in isolated distal portion of colon of rat, without and with diclofenac sodium; conditions: for inhibition at 0.01 µg/mL / inhibition at 0.02 µg/mL / inhibition at 0.04 µg/mL / inhibition at 0.08 µg/mL / inhibition at 0.0005 µg/mL / inhibition at 0.001 µg/mL / inhibition at 0.002 µg/mL: Rattus norvegicus, Ach 100 ng/ml; for inhibition at 0.01 µg/mL: pitofenone HCl 10 ng/ml; for inhibition at 0.02 µg/mL: pitofenone HCl 20 ng/ml; for inhibition at 0.04 µg/mL: pitofenone HCl 40 ng/ml; for inhibition at 0.08 µg/mL: pitofenone HCl 80 ng/ml; for inhibition at 0.0005 µg/mL: fenpiverinium bromide 0.5 ng/ml; for inhibition at 0.001 µg/mL: fenpiverinium bromide 1.0 ng/ml; for inhibition at 0.002 µg/mL: fenpiverinium bromide 2.0 ng/ml
Description: In order to see the effect of NSAID on the antispasmodic activity of pitifenone hydrochloride and fenpiverinium bromide an experiment was conducted on standard isolated tissues of experimental animal. The tissue chosen for the experiment was the distal portion of colon of rat. The NSAID selected for the experiment was diclofenac sodium. The percentage inhibition of acetylcholine-induced contraction (at dosage level of 100 ng/m) was studied with varied concentration of pitofenone hydrochloride in the dose range of 10-80 nano gm/ml. […] The data obtained in the experiment is collected in Table -2.

[2] = cited from earlier work
[3] = Brogden et al, Drugs 20;24-48 (1980); cited from earlier work
[4] = before diclofenac Na, read-out: Percentage inhibition of Ach induced contraction, before diclofenac Na
[5] = with diclofenac sodium 20 μg/ml, read-out: Percentage inhibition of Ach induced contraction, after diclofenac Na
[6] = with diclofenac sodium (20 μgm/ml), read-out: Percentage inhibition of Ach induced contraction, after diclofenac Na

Q: For Cc1c(N(C)CS(=O)(=O)O)c(=O)n(-c2ccccc2)n1C [Analgin], which bone marrow depression [1] is on record?
A: Its bone marrow depression is “implicated in causing bone marrow depression”.

Q: With COC(=O)c1ccccc1C(=O)c1ccc(OCCN2CCCCC2)cc1 [Pitofenone Hcl, pitofenone hydrochloride] as the molecule, how does the inhibition at 0.01 µg/mL (rat colon; [4]) read?
A: Its inhibition at 0.01 µg/mL is 0%.

Q: And the inhibition at 0.01 µg/mL (rat colon; [5])?
A: Its inhibition at 0.01 µg/mL is 100%.

Q: And the inhibition at 0.02 µg/mL (rat colon; [4])?
A: The inhibition at 0.02 µg/mL was 0%.

Q: And the inhibition at 0.02 µg/mL (rat colon; [5])?
A: The inhibition at 0.02 µg/mL was 100%.

Q: And the inhibition at 0.04 µg/mL (rat colon; [4])?
A: The inhibition at 0.04 µg/mL was 0%.

Q: What about the inhibition at 0.04 µg/mL (rat colon; [5]) of the same molecule?
A: The inhibition at 0.04 µg/mL was 100%.

Q: What about the inhibition at 0.08 µg/mL (rat colon; [4]) of the same molecule?
A: The inhibition at 0.08 µg/mL was 20.2%.

Q: And the inhibition at 0.08 µg/mL (rat colon; [5])?
A: The inhibition at 0.08 µg/mL was 100%.

Q: For C[N+]1(CCC(C(N)=O)(c2ccccc2)c2ccccc2)CCCCC1 [Fenpiverinium Bromide, fenpiverinium bromide], which inhibition at 0.0005 µg/mL (rat colon; [4]) is on record?
A: The inhibition at 0.0005 µg/mL was 43.8%.

Q: And the inhibition at 0.0005 µg/mL (rat colon; [6])?
A: The inhibition at 0.0005 µg/mL was 100%.

Q: What about the inhibition at 0.001 µg/mL (rat colon; [4]) of the same molecule?
A: The inhibition at 0.001 µg/mL was 78.7%.

Q: What about the inhibition at 0.001 µg/mL (rat colon; [6]) of the same molecule?
A: Its inhibition at 0.001 µg/mL is 100%.

Q: And the inhibition at 0.002 µg/mL (rat colon; [4])?
A: Its inhibition at 0.002 µg/mL is 100%.

Q: What about the inhibition at 0.002 µg/mL (rat colon; [6]) of the same molecule?
A: The inhibition at 0.002 µg/mL was 100%.

Q: For O=C(O)Cc1ccccc1Nc1c(Cl)cccc1Cl [diclofenac sodium], which “side effects vs pethidine intramuscular” value ([2]; intramuscular, acute renal colic) is on record?
A: Its value is “fewer side effects”.

Q: And the “effectiveness in the management of acute renal colic vs pethidine intramuscular” value ([2]; intramuscular)?
A: The value was “more effective than narcotic analgesic like pethidine intramuscular”.

Q: With O=C(O)Cc1ccccc1Nc1c(Cl)cccc1Cl [diclofenac] as the molecule, how does the “use in painful non-rheumatic syndromes” value ([2]; biliary colic (Grossi et al.), acute renal colic (Garcia Alonso et al.)) read?
A: The value was “of use in painful non-rheumatic syndromes”.

Q: And the reported pharmacological activity [3]?
A: The reported pharmacological activity was “anti inflammatory activity, analgesic activity and anti pyretic activity”.

Q: And the “potentiation of antispasmodic action of pitofenone hydrochloride and fenpiverinium bromide” value (rat colon; general statement of findings)?
A: The value was “potentiates the antispasmodic action of pitofenone hydrochloride and fenpiverinium bromide several times”.

Q: And the “action with pitofenone hydrochloride as an antispasmodic” value (rat colon; rat colon, diclofenac sodium 20 μg/ml, pitofenone HCl 10-80 ng/ml)?
A: Its value is “synergistic (potentiating) action”.

Q: What about the “action with fenpiverinium bromide as an antispasmodic” value (rat colon; rat colon, diclofenac sodium 20 μgm/ml, fenpiverinium bromide 0.5-2 ng/ml) of the same molecule?
A: Its value is “synergistic (potentiating) action”.

Source: patent US5876751A, “Antispasmodic and antinflammatory composition and a process for the manufacture thereof” (priority 1996, dated 1999)
